Measured values reported in patent US20240082208A1 (priority 2021, published 2024).

Legend:
dengue virus = assay: In vitro dengue virus infection of Vero cells, viral RNA titer by qRT-PCR; assay type: cell-based; settings: 40 μM, 48 hours after infection
Experimental: In order to evaluate the antiviral effect of irosustat in vitro, an additional experiment was performed in which Vero cells were infected with dengue virus. 16 hours before viral infection, cells were pre-treated with irosustat at a concentration of 0 μM, 20 μM or 40 μM, and 1 hour thereafter, the medium was replaced with a cell culture medium containing the drug. 48 hours after infection with the virus, the viral RNA titer of dengue virus in the cell culture medium was measured through qRT-PCR, and the results are shown in FIG. 3.

[1] = tested on: severe acute respiratory syndrome virus (SARS; SARS-CoV-2); design: species or system K18-ACE2 TG mice; settings: mouse, in vivo

## NS(=O)(=O)Oc1ccc2c3c(c(=O)oc2c1)CCCCC3 [irosustat, (6-oxo-8,9,10,11-tetrahydro-7H-cyclohepta[c]chromen-3-yl)sulfamate]
Dengue virus
  decrease of virus titer: ≥ 50%
[1]
  viral titer in the lung tissue, lower than vehicle: about 77%
